In patent US20260216166A1, “COMPOUND FOR TREATMENT OF ERECTILE DYSFUNCTION” (Initiator Pharma A/S, priority 2023, published 2026):
Entries after “also recorded” stand apart in the source; their conditions may differ.

Key:
diabetic db/db mice = experiment: Erectile responses in type 2 diabetic db/db mice; format: in vivo, mouse; details: intravenous infusion 1 mg/kg, n=7, versus vehicle
Method: FIG. 1. Original traces show increased intracavernosal pressure induced by the cavernous nerve's electrical field stimulation (EFS). […] E-G) Frequency, duration, and magnitude of spontaneous erections after intravenous infusion of vehicle, IP2015 0.1 mg/kg, 1 mg/kg, or 10 mg/kg. The effect on EFS is reported in the supplementary data file. (H-J) Intravenous infusion of vehicle and IP2015 (1 mg/kg) in diabetic db/db mice. IP2015 increased H) frequency, I) duration and J) the magnitude of spontaneous erectile responses in db/db mice (n=7). The results are means±s.e.mean. *P<0.05 versus vehicle control.
To investigate the effects of IP2015 in a simple model of erectile dysfunction, before dissecting its underlying pharmacology in vivo, we assessed its effects in a type-2 diabetic mouse model. Type 2 diabetic db/db mice have decreased erectile function compared to normal C57BL/6 mice and heterozygous db/+ control mice.

[1] = Plasma concentrations after repeat single oral doses in male subjects with ED; format: in vivo, human; details: 5 mg and 10 mg; Week 1 and Week 4
Method: (§1) On Day-7, and at the Week 1 (Day 1), Week 2, Week 3, Week 4 and Follow-up visits, all groups were asked to complete the IIEF-15 questionnaire. Group 2 was asked to complete a Visual Stimulation Assessment using a RigiScan Plus Monitor on Day-7, Week 1 (Day 1) and Week 4. Group 2 was also required to provide blood samples for pharmacokinetic assessment on Week 1 (Day 1) and Week 4. Group 3 was required to provide semen samples on Day-7 and Week 4.
(§2) Efficacy was assessed through the International Index of Erectile Function (IIEF)-15 questionnaire. The change from baseline in responses to questions of the IIEF-15 questionnaire, including questions regarding erectile function, orgasmic function, sexual desire, intercourse satisfaction and overall satisfaction domain scores, was determined at different time points of the study. RigiScan assessments during the stimulus assessment, and sperm count and motility by semen sample collection was used for efficacy evaluation. Safety was assessed through AE reporting, 12-lead ECG, vital signs, physical examinations and clinical laboratory evaluations. Pharmacokinetics was assessed by blood sampling.

sperm count and motility = experiment: Semen analysis after repeat single oral doses in male subjects with ED; format: in vivo, human; details: 5 mg or 10 mg, four weekly doses; Day -7 versus Week 4
Method: as §1, §2

healthy male subjects = experiment: Phase I ascending single oral dose safety and tolerability in healthy male subjects; format: in vivo, human
Method: The study was a Phase I, randomised, double-blind, placebo-controlled, ascending single oral dose, safety, tolerability, pharmacokinetic (PK) and pharmacodynamics (PD) study of IP2015 in healthy male subjects.
Each subject received one oral dose of IP2015 or matched placebo. The starting dose of IP2015 was 0.01 mg in Cohort 1. The dose level was to be escalated to a maximum of 0.05 mg in Cohort 2 and a maximum of 0.2 mg in Cohort 3. The doses in the remaining five cohorts were to be determined based on the dose escalation criteria. In every cohort, no more than 2 subjects were dosed on the first dosing day (1 active; 1 placebo) such that no more than 1 subject received an active IP2015 dose for the first time at each dose level.
The doses used in each cohort were as follows: • Cohort 1-0.01 mg • Cohort 2-0.05 mg • Cohort 3-0.2 mg • Cohort 4-0.6 mg • Cohort 5-1.8 mg • Cohort 6-5.4 mg • Cohort 7-16.2 mg • Cohort 8-10 mg
The study evaluated the clinical safety data from adverse event (AE) reporting, 12-lead electrocardiogram (ECG), cardiac telemetry, vital signs (standing and supine blood pressure (BP), heart rate (HR), oral temperature and clinical laboratory evaluations (chemistry, haematology, urinalysis) and physical examinations in healthy male subjects.
Safety parameters were listed and summarised using descriptive statistics. Pharmacokinetic parameter estimates were calculated using noncompartmental methods. Pharmacokinetic data were listed for each subject/patient and summarised by descriptive statistics.

## COc1cc2ccc(OC3CC4CCC(C3)N4)cc2oc1=O (centres unmarked) [IP2015, 7-[(8-azabicyclo[3.2.1]octan-3-yl)oxy]-3-methoxy-chromen-2-one]
Diabetic db/db mice
  frequency, duration, and magnitude of erectile responses: significantly increased the frequency, duration, and magnitude of erectile responses; also recorded: increased the number of erections
[1]
  relation of plasma concentrations to dose: linear relation of plasma concentrations to dose
Sperm count and motility
  sperm count, motility, or morphology: did not have negative effects on sperm count, motility, or morphology
Healthy male subjects; 0.01 mg to 10 mg dose range
  incidence of TEAEs: lower incidence of treatment-emergent adverse effects (TEAEs) compared to higher doses; also recorded: relatively low; also recorded: lower side effects than doses of 16.2 mg
  mean ECG parameters: no significant treatment- or dose-related trends
  vital sign values: no significant treatment- or dose-related trends
Healthy male subjects; 16.2 mg
  subjects with sustained tachycardia for several hours: 2
Healthy male subjects; 16.2 mg compared to 0.01 mg to 10 mg
  incidence of side effects: increased at 16.2 mg compared to the 0.01 mg to 10 mg dose range
Healthy male subjects; 16.2 mg dose group (all subjects)
  subjects reporting at least one TEAE: 4
Healthy male subjects; 16.2 mg, 2, 3, 4, 6, 8, 10 and 12 hours postdose
  standing pulse rate: increases from baseline
Healthy male subjects; 16.2 mg, 6, 8 and 10 hours postdose
  supine pulse rate: increases from baseline
Healthy male subjects; 16.2 mg, 8 and 12 hours postdose
  heart rate (ECG): increases from baseline
Healthy male subjects; healthy males, single oral doses
  haematology, serum biochemistry or urinalysis data: no significant treatment- or dose-related trends
Healthy male subjects; in the 40 subjects who received IP2015, 0.01-16.2 mg
  total TEAEs: 32
Healthy male subjects; of the 40 subjects who received IP2015, 0.01-16.2 mg
  subjects experiencing TEAEs: 16
Healthy male subjects; whole Phase I study
  discontinuation due to a TEAE: no subjects discontinued due to a TEAE
  severity of TEAEs: majority of events were mild in severity
